Consider 18 molecules from patent publication US20210198277A1, “AMINE-SUBSTITUTED ARYL OR HETEROARYL COMPOUNDS” (Epizyme, Inc., priority 2016, published 2021).

The IC50 is the concentration at which inhibition is half-maximal.

The first test concerns the target T1, human EHMT2 913-1193 (Homo sapiens, UniProt Q96KQ7).
T1 construct: recombinant purified human EHMT2 913-1193, Viva; purchased Viva
T1 sequence (Q96KQ7 913-1193): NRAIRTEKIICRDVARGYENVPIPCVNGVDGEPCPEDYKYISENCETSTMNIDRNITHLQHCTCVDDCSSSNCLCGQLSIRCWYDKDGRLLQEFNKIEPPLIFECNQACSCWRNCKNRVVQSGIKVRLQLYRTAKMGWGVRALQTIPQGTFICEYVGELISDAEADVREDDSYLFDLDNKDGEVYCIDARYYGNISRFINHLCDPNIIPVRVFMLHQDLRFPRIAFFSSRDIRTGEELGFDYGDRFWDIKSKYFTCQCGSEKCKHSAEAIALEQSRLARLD
Nature of the test: EHMT2 enzyme assay on histone peptide substrate (EHMT2 PEP). To be noted: Table III; read-out: EHMT2 PEP (IC50 μM). In kind it is biochemical. The gist of the method:
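10-pt 3-fold series, 50 μM top final, 2% DMSO; 30 min preinc w/ 0.031 nM enzyme; pH 7.5 Bicine/TCEP buffer; ^3H-SAM + biotin-histone peptide, 60 min RT; SAM quench; streptavidin Flashplate capture, TopCount.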
Turning to `COc1ccc(Nc2nccc(Nc3cccc(F)c3)n2)cc1OCCCN1CCCC1` [Compound 349], the IC50 lay within 1 to 10 µM.

Take `CNc1cc(C)nc(Nc2cnc(OC)c(OCCCN3CCCC3)c2)n1` [Compound 332, N^2-(6-methoxy-5-(3-(pyrrolidin-1-yl)propoxy)pyridin-3-yl)-N^4,6-dimethylpyrimidine-2,4-diamine]: the half-inhibitory concentration (IC50) is < 0.1 µM.

On to `COc1ccc(Nc2nccc(-n3nc(C)cc3C)n2)cc1OCCCN1CCCC1` [Compound 338], for which the IC50 is > 10 µM.

For `CNc1cc(C)nc(Nc2ccc(OC)c(O[C@H]3C[C@H](CN(C)C)C3)c2)n1` [Compound 331, N^2-(3-((1r,3r)-3-((dimethylamino)methyl)cyclobutoxy)-4-methoxyphenyl)-N^4,6-dimethylpyrimidine-2,4-diamine], the IC50 is > 10 µM.

Regarding `COc1ccc(Nc2cc3c(cn2)ncn3C)cc1OCCCN1CCCC1` [Compound 258, N-(4-methoxy-3-(3-(pyrrolidin-1-yl)propoxy)phenyl)-1-methyl-1H-imidazo[4,5-c]pyridin-6-amine], the half-inhibitory concentration (IC50) was > 10 µM.

`COc1ccc(Nc2nccc(NCC3CCOCC3)n2)cc1OC1CCC2(CC1)CCN(C)C2` (stereo not drawn) [Compound 259, N^2-(4-methoxy-3-((2-methyl-2-azaspiro[4.5]decan-8-yl)oxy)phenyl)-N^4-((tetrahydro-2H-pyran-4-yl)methyl)pyrimidine-2,4-diamine]: the IC50 is > 10 µM.

Still in this test, the particulars now being: Table VI; read-out: EHMT2 PEP IC50.
As for `CNc1cc(C2CCOCC2)c2cc(OC)c(OC[C@@H]3CCNC3)cc2n1` [Compound 802], the 50% inhibitory concentration (IC50) is < 0.1 µM.

For the molecule `CNc1cc(C2CCN(CC(F)(F)F)CC2)c2cc(OC)c(OCCCN3CCCC3)cc2n1` [Compound 833], the half-inhibitory concentration (IC50) was < 0.1 µM.

As to `COc1cc2c(C3CCN(CC(F)(F)F)CC3)nc(C)nc2cc1OCCCN1CCCC1` [Compound 841], the IC50 is > 10 µM.

Take `CNc1cc(C)nc(Nc2ccc(OC)c(CN[C@@H]3CCNC3)c2)c1` [Compound 814]: the IC50 was in the range of 1 to 10 µM.

`CNc1cc(C)nc(Nc2ccc(OC)c(C#CC3CCCN3)c2)n1` (stereo not drawn) [Compound 846]: the IC50 was < 0.1 µM.

On to `COc1cc2c(C3CCN(C)CC3)cc(N3CCCCC3)nc2cc1OCCCN1CCCC1` [Compound 812], for which the IC50 is < 0.1 µM.

With `CNc1cc(C)nc(Nc2cc(OCCCN3CCCC3)c3nccn3c2)n1` [Compound 618], the IC50 was 1 to 10 µM.

Consider `COc1cc2c(C3CCN(CC(F)(F)F)CC3)cc(C)nc2cc1OCCCN1CCCC1` [Compound 837], for which the IC50 lay within 0.1 to 1 µM.

Take `CCN1CC(COc2cc(Nc3nc(C)cc4[nH]ccc34)ncc2OC)C1` [Compound 613]: the IC50 was in the range of 0.1 to 1 µM.

Take `CNc1cc(C)nc(Nc2ccc(OC)c(C#CC3CCNC3)c2)n1` (stereo not drawn) [Compound 845]: the IC50 lay in the range of 0.1 to 1 µM.

`COc1cc2c(C3CCN(CCC(F)(F)F)CC3)cc(C)nc2cc1OCCCN1CCCC1` [Compound 838]: the IC50 was < 0.1 µM.

With `CCS(=O)(=O)N1CCC(c2cc(C)nc3cc(OCCCN4CCCC4)c(OC)cc23)CC1` [Compound 836], the IC50 was 0.1 to 1 µM.
